Experimental data: patent publication US4091206A, “Quinoxaline-1,4-dioxide derivatives” (Egyt Gyogyszervegyeszeti Gyar, priority 1974, dated 1978)

Legend:
[1] = tested on: pigs; experiment: weight gain increasing effect on pigs (fodder admixed with compound), fodder utilization factor; format: in vivo; conditions: fodder admixed with 50 mg./kg. of compound, index from feeding coefficient and percentage daily weight gain, control 50
Experimental: When utilized as fodder additives, the new compounds according to the invention increase the weight gain and fodder utilization of pigs. The weight gain increasing effect of the compounds was tested on pigs as follows:
The animals were fed under the same conditions with fodders of the same amount and composition. In the test groups the animals received a fodder admixed with 50 mg./kg. of the compound to be tested, whereas no additive was admixed with the fodder in the control group.
The weight gain was measured daily, and the feeding coefficient (amount of consumed fodder resulting in a weight gain of 1 kg.) was calculated. The percentage daily weight gain was calculated by the formula [formula]
Since the rate of weight gain increasing effect depends on both the feeding coefficient and the percentage daily weight gain, and because of the actual fodder consumption and the time required to reach the slaughter weight are the important factors of economical animal husbandry, an index characteristic of the rate of weight gain increase was calculated from the above data by the equation [formula] The higher is the fodder utilization factor the more economic is the pig-breeding.
(§1) The fodder utilization factors determined for the compounds according to the invention, furthermore the oral toxicity data of the novel compounds measured on mice are listed in Table 1. For the sake of comparison the respective data of some known compounds structurally related to those of formula I are also given.

[2] = oral toxicity on mice; conditions: mouse, in vivo
Text: as §1

Structure (SMILES) | Fodder utilization factor [1] | LD50 ([2]; po) | LD50 ([2]; oral, mice)
O=C(Cc1cccc2ccccc12)NN=Cc1c[n+]([O-])c2ccccc2[n+]1[O-] [1-napthylmethyl, 2-(1'-Naphthyl-acetyl)-hydrazono-formyl-quinoxaline-1,4-dioxide] | 93.5 | 13000 mg/kg | 
O=C(NN=Cc1c[n+]([O-])c2ccccc2[n+]1[O-])c1ccncc1 [Example 4-pyridyl, 2-(Isonicotinoyl)-hydrazono-formyl-quinoxaline-1,4-dioxide] | 91 |  | 12000 mg/kg
O=C(NN=Cc1c[n+]([O-])c2ccccc2[n+]1[O-])c1ccc([N+](=O)[O-])o1 [Example 5-nitrofuryl, 2-(5'-Nitro-2'-furanoyl)-hydrazono-formyl-quinoxaline-1,4-dioxide] | 91 | 14000 mg/kg | 
CCCCCCC(=O)NN=Cc1c[n+]([O-])c2ccccc2[n+]1[O-] [hexyl, 2-(Hexylcarbonyl-hydrazono-formyl)-quinoxaline-1,4-dioxide] | 53 | 4000 mg/kg | 
COC(=O)NN=Cc1c[n+]([O-])c2ccccc2[n+]1[O-] [methoxy, 2-(Methoxycarbonyl-hydrazono-formyl)-quinoxaline-1,4-dioxide] | 66 |  | 4000 mg/kg
O=C(NN=Cc1c[n+]([O-])c2ccccc2[n+]1[O-])c1ccccc1 [phenyl, 2-(Benzoyl-hydrazono-formyl)-quinoxaline-1,4-dioxide] | 66 |  | 4000 mg/kg
